Reference: US10940139B2, “Compounds that interact with the Ras superfamily for the treatment of cancers, inflammatory diseases, rasopathies, and fibrotic disease” (Shy Therapeutics LLC, priority 2017, dated 2021)

What was measured:
[1] = tested on: TNFα production in RAW 264.7 macrophage cell line; test: Mouse TNF alpha quantification assay (LPS-stimulated macrophages, ELISA); type: cell-based; conditions: RAW264.7, RAW 264.7 murine leukemia virus transformed macrophage cell lines, LPS stimulation, read-out: TNF-α % Inhibition at 30 μM
[2] = tested on: IL6 production in RAW 264.7 macrophage cell line; test: Mouse IL6 quantification assay (LPS-stimulated macrophages, ELISA); type: cell-based; conditions: RAW264.7, RAW 264.7 murine leukemia virus transformed macrophage cell lines, LPS stimulation, read-out: IL-6 % Inhibition at 30 μM

Row | SMILES | inhibition at 30 µM [1] [%] | inhibition at 30 µM [2] [%]
1 | Cc1ccc(-c2cc3nc(-c4ccccn4)nc(O)c3s2)cc1 [drawing 2382] | 1 to 25 | 1 to 25
2 | Oc1nc(-c2ccccn2)nc2cc(-c3ccccc3Cl)sc12 [drawing 2383] | 0 | 26 to 50
3 | COc1c(O)nc(-c2ccccn2)nc1Oc1cccc(C(F)(F)F)c1 [drawing 2384] | 26 to 50 | 1 to 25
4 | Oc1nc(-c2ccccn2)nc(Oc2cccc(C(F)(F)F)c2)c1O [drawing 2385] | 1 to 25 | 1 to 25
5 | Oc1nc(-c2ccccn2)nc2cc(-c3ccc(-c4ccccc4)cc3)sc12 [drawing 2386] | 1 to 25 | 51 to 75
6 | Cc1ccc(-c2csc3c(O)nc(-c4ccccn4)nc23)cc1 [drawing 2387] | 1 to 25 | 0
7 | Oc1nc(-c2ccccn2)nc2cc(-c3ccncc3)sc12 [drawing 2388] | 1 to 25 | 26 to 50
8 | Oc1nc(-c2ccccn2)nc2cc(-c3ccccc3)sc12 [drawing 2389] | 1 to 25 | 26 to 50
9 | COc1ccc(-c2cc3nc(-c4ccccn4)nc(O)c3s2)cc1 [drawing 2390] | 1 to 25 | 0
10 | Oc1nc(-c2ccccn2)nc2cc(-c3cccc(Br)c3)sc12 [drawing 2391] | 1 to 25 | 1 to 25
11 | COc1nc(-c2ccccn2)nc(Oc2cccc(C(F)(F)F)c2)c1O [drawing 2392] | 1 to 25 | 0
12 | COCCN(C)c1nc(-c2nccn2C)nc2sc(-c3ccccc3)c(-c3ccccc3)c12 [drawing 2393] | 76 to 100 | 76 to 100
13 | CC(C)OCCNc1nc(-c2nccn2C)nc2sc(-c3ccccc3)c(-c3ccccc3)c12 [drawing 2394] | 1 to 25 | 1 to 25
14 | Cn1ccnc1-c1nc(NCCOC(F)(F)F)c2c(-c3ccccc3)c(-c3ccccc3)sc2n1 [drawing 2395] | 1 to 25 | 26 to 50
15 | CC(O)CNc1nc(-c2nccn2C)nc2sc(-c3ccccc3)c(-c3ccccc3)c12 (centres unmarked) [drawing 2396] | 0 | 26 to 50
16 | COCCCNc1nc(-c2nccn2C)nc2sc(-c3ccccc3)c(-c3ccccc3)c12 [drawing 2397] | 76 to 100 | 76 to 100
17 | COC1CCN(c2nc(-c3nccn3C)nc3sc(-c4ccccc4)c(-c4ccccc4)c23)C1 (centres unmarked) [drawing 2398] | 76 to 100 | 76 to 100
18 | CCOCCOc1nc(-c2nccn2C)nc2sc(-c3ccccc3)c(-c3ccccc3)c12 [drawing 2399] | 26 to 50 | 1 to 25
19 | CCN(CC)CCOc1nc(-c2nccn2C)nc2sc(-c3ccccc3)c(-c3ccccc3)c12 [drawing 2400] | 76 to 100 | 76 to 100
20 | COCCNc1nc(-c2ccncn2)nc2sc(-c3ccccc3)c(-c3ccccc3)c12 [drawing 2401] | 51 to 75 | 76 to 100
21 | CCOCCNc1nc(-c2nccn2C)nc2sc(-c3ccccc3)c(-c3ccccc3)c12 [drawing 2402] | 76 to 100 | 76 to 100
22 | Cn1ccnc1-c1nc(NCCOC2CC2)c2c(-c3ccccc3)c(-c3ccccc3)sc2n1 [drawing 2403] | 76 to 100 | 76 to 100

Row | SMILES | inhibition at 30 µM [1] [%] | inhibition at 30 µM [2] [%]
23 | COCC(C)Nc1nc(-c2nccn2C)nc2sc(-c3ccccc3)c(-c3ccccc3)c12 (centres unmarked) [drawing 2404] | 76 to 100 | 76 to 100
24 | CC(CO)Nc1nc(-c2nccn2C)nc2sc(-c3ccccc3)c(-c3ccccc3)c12 (centres unmarked) [drawing 2405] | 1 to 25 | 51 to 75
25 | Cn1ccnc1-c1nc(NCCCO)c2c(-c3ccccc3)c(-c3ccccc3)sc2n1 [drawing 2406] | 26 to 50 | 51 to 75
26 | COCCNc1nc(-c2nccn2C)nc2sc(-c3ccccc3)c(-c3ccccc3Cl)c12 [drawing 2407] | 1 to 25 | 51 to 75
27 | COCCNc1nc(-c2nccn2C)nc2sc(-c3ccccc3Cl)c(-c3ccccc3)c12 [drawing 2408] | 1 to 25 | 1 to 25
28 | COCCNc1nc(-c2nccn2C)nc2sc(-c3ccncc3)c(-c3ccccc3)c12 [drawing 2409] | 51 to 75 | 76 to 100
29 | COCCNc1nc(-c2cn(C)cn2)nc2sc(-c3ccccc3)c(-c3ccccc3)c12 [drawing 2410] | 76 to 100 | 76 to 100
30 | COCCNc1nc(-c2nccn2C)nc2sc(C)c(-c3ccccc3)c12 [drawing 2411] | 26 to 50 | 1 to 25
31 | COCCNc1nc(-c2cn(C)cn2)nc2sc(C)c(-c3ccccc3)c12 [drawing 2412] | 26 to 50 | 1 to 25
32 | COCCNc1nc(-c2nccn2C)nc2sc(-c3cccc(OC)c3)c(-c3ccccc3)c12 [drawing 2413] | 76 to 100 | 76 to 100
33 | CC(C)COc1ccc(-c2c(-c3ccccc3)sc3c(O)nc(-c4nccn4C)nc23)cn1 [drawing 2414] | 1 to 25 | 51 to 75
34 | Cn1ccnc1-c1nc(O)c2sc(-c3ccccc3)c(-c3ccccc3)c2n1 [drawing 2415] | 0 | 1 to 25
35 | COCCNc1nc(-c2nccn2C)nc2sc(-c3ccccc3)c(-c3ccc(OC)cc3)c12 [drawing 2416] | 51 to 75 | 76 to 100
36 | COCCNc1nc(-c2nccn2C)nc2sc(C3CCOCC3)c(-c3ccccc3)c12 [drawing 2417] | 76 to 100 | 76 to 100
37 | COCCNc1nc(-c2cccc(N)n2)nc2sc(-c3ccccc3)c(-c3ccccc3)c12 [drawing 2418] | 26 to 50 | 26 to 50
38 | Cn1ccnc1-c1nc(O)c2sc(-c3ccccc3)c(-c3cccc(C(F)(F)F)c3)c2n1 [drawing 2419] | 26 to 50 | 26 to 50
39 | COc1ccc(-c2c(-c3ccccc3)sc3c(O)nc(-c4nccn4C)nc23)cn1 [drawing 2420] | 26 to 50 | 26 to 50
40 | Cc1sc2c(O)nc(-c3nccn3C)nc2c1-c1ccccc1 [drawing 2421] | 26 to 50 | 76 to 100
41 | Cn1ccnc1-c1nc(O)c2sc(-c3ccccc3)c(-c3ccccc3Cl)c2n1 [drawing 2422] | 51 to 75 | 76 to 100
42 | COCCNc1nc(-c2nccn2C)nc2sc(-c3ccccc3)c(-c3ccncc3)c12 [drawing 2423] | 1 to 25 | 51 to 75
43 | COCCNc1nc(-c2nccn2C)nc2sc(-c3ccc(OC)cc3)c(-c3ccccc3)c12 [drawing 2424] | 51 to 75 | 76 to 100
44 | Cn1ccnc1-c1nc(O)c2scc(-c3cccc(C(F)(F)F)c3)c2n1 [drawing 2425] | 51 to 75 | 76 to 100

Row | SMILES | inhibition at 30 µM [1] [%] | inhibition at 30 µM [2] [%]
45 | Cc1sc2c(O)nc(-c3nccn3C)nc2c1-c1cccc(C(F)(F)F)c1 [drawing 2426] | 0 | 0
46 | Cc1sc2c(O)nc(-c3nccn3C)nc2c1-c1ccc(OCC(C)C)nc1 [drawing 2427] | 1 to 25 | 1 to 25
47 | COc1ccc(-c2c(C)sc3c(O)nc(-c4nccn4C)nc23)cn1 [drawing 2428] | 1 to 25 | 1 to 25
48 | Cc1sc2c(O)nc(-c3nccn3C)nc2c1-c1ccccc1Cl [drawing 2429] | 1 to 25 | 26 to 50
49 | Cn1ccnc1-c1nc(O)c2scc(-c3cccc(OC(F)(F)F)c3)c2n1 [drawing 2430] | 51 to 75 | 76 to 100
50 | Cn1cnc(-c2nc(O)c3scc(-c4cccc(C(F)(F)F)c4)c3n2)c1 [drawing 2431] | 0 | 0
51 | CC(C)COc1ccc(-c2csc3c(O)nc(-c4cn(C)cn4)nc23)cn1 [drawing 2432] | 26 to 50 | 76 to 100
52 | Cn1cnc(-c2nc(O)c3scc(-c4cccc(OC(F)(F)F)c4)c3n2)c1 [drawing 2433] | 0 | 0
53 | Oc1nc(-c2ccncn2)nc2c(-c3cccc(C(F)(F)F)c3)csc12 [drawing 2434] | 0 | 26 to 50
54 | Oc1nc(-c2ncccn2)nc2c(-c3cccc(C(F)(F)F)c3)csc12 [drawing 2435] | 26 to 50 | 1 to 25
55 | CC(C)Oc1ccc(-c2csc3c(O)nc(-c4nccn4C)nc23)cc1F [drawing 2436] | 0 | 1 to 25
56 | Cc1sc2c(O)nc(-c3nccn3C)nc2c1-c1ccc(OC(C)C)c(F)c1 [drawing 2437] | 0 | 51 to 75
57 | CC(C)Oc1ccc(-c2c(-c3ccccc3)sc3c(O)nc(-c4nccn4C)nc23)cc1F [drawing 2438] | 0 | 1 to 25
58 | COc1ccc(-c2csc3c(O)nc(-c4nccn4C)nc23)cn1 [drawing 2440] | 76 to 100 | 76 to 100
59 | Cn1ccnc1-c1nc(O)c2scc(-c3ccccc3)c2n1 [drawing 2441] | 51 to 75 | 76 to 100
60 | Cn1ccnc1-c1nc(O)c2scc(-c3ccccc3Cl)c2n1 [drawing 2442] | 1 to 25 | 51 to 75
61 | Cn1ccnc1-c1nc(O)c2scc(-c3ccc(F)cc3F)c2n1 [drawing 2443] | 1 to 25 | 51 to 75
62 | Cn1ccnc1-c1nc(O)c2scc(-c3cccc(Cl)c3)c2n1 [drawing 2444] | 0 | 51 to 75
63 | COC(C)(C)c1ccc(-c2csc3c(O)nc(-c4nccn4C)nc23)cc1 [drawing 2445] | 0 | 26 to 50
64 | Cn1ccnc1-c1nc(O)c2scc(-c3ccc(C(C)(C)C)cc3)c2n1 [drawing 2446] | 0 | 1 to 25
